Columns and labels:
dephosphorylated FGFR2 = dephosphorylated FGFR2 (Homo sapiens (Human), UniProt P21802); assay: FGFR enzyme binding assay (HTRF tracer displacement), FGFR2; details: 5 nM dephosphorylated FGFR2, average of multiple determinations if made
Description: The potency of compounds inhibiting human isoforms of FGFR kinase was determined using Life Technologies' Homogeneous Time Resolved Fluorescence (HTRF)-based binding assay technology. […] After a 60 minute incubation at 22° C., the extent of tracer displacement was determined using a PerkinElmer EnVision multimode plate reader via HTRF dual wavelength detection, and the percent of control (POC) was calculated using a ratiometric emission factor. One hundred POC was determined using no test compound, and 0 POC was determined in the presence of 1 μM of an appropriate control inhibitor.

[1] = molecular target: recombinant human FGFR3 (amino acids R397-T806) (Homo sapiens (Human), UniProt P22607); assay: FGFR3 enzyme activity assay (LanthaScreen TR-FRET); type: biochemical; details: 25 μM ATP, 10 min incubation at 22° C., average of multiple determinations if made, read-out: FGFR3 Enz FRET IC50
recombinant human FGFR3 (amino acids R397-T806), sequence (P22607 397-806): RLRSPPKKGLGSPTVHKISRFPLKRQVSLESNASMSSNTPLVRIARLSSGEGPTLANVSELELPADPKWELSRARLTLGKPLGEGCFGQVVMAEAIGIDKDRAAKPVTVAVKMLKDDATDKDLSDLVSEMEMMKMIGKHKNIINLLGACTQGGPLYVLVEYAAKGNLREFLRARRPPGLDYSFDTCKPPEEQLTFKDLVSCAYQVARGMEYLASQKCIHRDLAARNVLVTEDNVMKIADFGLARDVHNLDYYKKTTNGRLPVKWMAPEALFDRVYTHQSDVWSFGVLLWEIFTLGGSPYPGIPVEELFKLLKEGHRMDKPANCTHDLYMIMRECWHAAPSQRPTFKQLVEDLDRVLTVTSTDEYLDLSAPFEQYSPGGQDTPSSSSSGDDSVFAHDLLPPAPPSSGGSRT
Method in brief: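 GST-HIS6-tagged human FGFR3 (R397-T806) was reacted with 100 nM Alexa Fluor 647-Poly-GT substrate and 25 μM ATP plus compound in HEPES/MgCl2/Triton buffer, pH 7.5, 2% DMSO, for 10 min at 22 °C.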

[2] = molecular target: HEK-293 cells transfected with dox-inducible human wild type FGFR1 (Homo sapiens (Human), UniProt P11362); assay: FGFR1 pERK cell assay; type: cell-based; details: HEK-293 dox-inducible FGFR1, 1 hour compound, 100 ng/ml FGF-acidic; maximum concentration 5 μM
HEK-293 cells transfected with dox-inducible human wild type FGFR1, sequence (P11362 22-822): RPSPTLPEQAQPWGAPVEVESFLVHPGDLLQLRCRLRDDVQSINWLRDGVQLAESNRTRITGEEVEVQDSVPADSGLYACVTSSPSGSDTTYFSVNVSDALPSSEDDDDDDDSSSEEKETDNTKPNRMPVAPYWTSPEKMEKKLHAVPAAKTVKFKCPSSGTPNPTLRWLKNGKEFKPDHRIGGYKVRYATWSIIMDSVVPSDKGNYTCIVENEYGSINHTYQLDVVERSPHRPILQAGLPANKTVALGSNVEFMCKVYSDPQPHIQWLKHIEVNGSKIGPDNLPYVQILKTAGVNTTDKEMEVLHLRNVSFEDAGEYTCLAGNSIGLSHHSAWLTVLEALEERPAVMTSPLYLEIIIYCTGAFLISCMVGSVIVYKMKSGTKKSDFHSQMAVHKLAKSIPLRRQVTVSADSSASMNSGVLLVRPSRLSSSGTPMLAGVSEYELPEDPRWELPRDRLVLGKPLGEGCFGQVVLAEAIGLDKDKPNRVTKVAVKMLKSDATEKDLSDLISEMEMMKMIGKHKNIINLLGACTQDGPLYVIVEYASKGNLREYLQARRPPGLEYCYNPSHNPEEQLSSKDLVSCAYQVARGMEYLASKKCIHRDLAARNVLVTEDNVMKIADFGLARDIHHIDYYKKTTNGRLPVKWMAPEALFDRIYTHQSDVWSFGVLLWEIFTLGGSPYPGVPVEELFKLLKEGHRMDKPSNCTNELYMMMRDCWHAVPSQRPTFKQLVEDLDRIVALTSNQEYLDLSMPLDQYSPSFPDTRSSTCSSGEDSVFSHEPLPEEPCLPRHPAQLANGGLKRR
Method in brief: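 In HEK-293 cells with dox-induced human wild-type FGFR1, compounds (1:3 dilutions, top 5 μM final) were applied 1 h at 37°C before 5 min stimulation with 100 ng/ml FGF-acidic. Phospho-ERK1/2 measured by MSD sandwich immunoassay; IC50 from 4-parameter fit of POC versus vehicle and control compound.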

[3] = molecular target: T1, HEK-293 cells transfected with dox-inducible human wild type FGFR3 (Homo sapiens (Human), UniProt P22607); assay: FGFR3 pERK cell assay; type: cell-based; details: HEK-293 dox-inducible FGFR3, 1 hour compound, 100 ng/ml FGF-acidic; maximum concentration 5 μM
T1 sequence (P22607 23-806): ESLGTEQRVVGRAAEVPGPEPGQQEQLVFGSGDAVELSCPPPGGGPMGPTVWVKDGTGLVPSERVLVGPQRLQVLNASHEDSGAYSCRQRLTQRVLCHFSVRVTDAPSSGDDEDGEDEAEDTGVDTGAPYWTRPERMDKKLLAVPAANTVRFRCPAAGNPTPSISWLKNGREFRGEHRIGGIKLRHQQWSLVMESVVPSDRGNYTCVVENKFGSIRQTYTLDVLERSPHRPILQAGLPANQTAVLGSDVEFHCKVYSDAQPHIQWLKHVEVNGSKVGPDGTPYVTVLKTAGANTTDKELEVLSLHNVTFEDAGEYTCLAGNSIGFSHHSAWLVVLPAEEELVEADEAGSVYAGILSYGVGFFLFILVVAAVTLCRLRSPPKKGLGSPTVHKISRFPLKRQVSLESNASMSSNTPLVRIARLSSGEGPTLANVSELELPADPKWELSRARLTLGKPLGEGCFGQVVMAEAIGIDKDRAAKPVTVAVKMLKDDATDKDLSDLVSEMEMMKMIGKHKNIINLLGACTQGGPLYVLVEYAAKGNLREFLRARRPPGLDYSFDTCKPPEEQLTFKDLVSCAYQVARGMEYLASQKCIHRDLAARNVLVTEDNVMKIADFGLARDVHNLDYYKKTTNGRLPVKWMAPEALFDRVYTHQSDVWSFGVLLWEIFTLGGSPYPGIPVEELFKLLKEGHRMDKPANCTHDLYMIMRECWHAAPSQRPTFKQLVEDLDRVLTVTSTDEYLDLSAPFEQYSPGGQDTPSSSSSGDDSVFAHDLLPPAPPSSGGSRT
Method in brief: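 Doxycycline-induced cells preincubated 1 h at 37 °C with compound (1:3 dilutions, top 5 μM final), then stimulated 5 min with 100 ng/ml FGF-acidic. Lysate phospho-ERK1/2 measured by MSD sandwich assay; IC50 at 50 POC from 4-parameter fit, normalised to no-compound and control-compound wells.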

[4] = molecular target: T1, HEK-293 cells transfected with dox-inducible human wild type FGFR3; assay: FGFR3 pFGFR cell assay (ELISA); type: cell-based; details: HEK-293 dox-inducible FGFR3, 1 hour compound, 100 ng/ml FGF-acidic
Method in brief: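 Doxycycline-induced (1 μg/ml) HEK-293 cells expressing wild-type human FGFR3, treated 1 h with compound (1:3 series, top final 5 μM), then stimulated 5 min with 100 ng/ml FGF-acidic. Phospho-FGFR3 measured by ELISA (total FGFR3 capture, phosphotyrosine detection, OD 450 nm); IC50 from 4-parameter fit of POC values.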

dephosphorylated FGFR2, sequence (P21802 22-821): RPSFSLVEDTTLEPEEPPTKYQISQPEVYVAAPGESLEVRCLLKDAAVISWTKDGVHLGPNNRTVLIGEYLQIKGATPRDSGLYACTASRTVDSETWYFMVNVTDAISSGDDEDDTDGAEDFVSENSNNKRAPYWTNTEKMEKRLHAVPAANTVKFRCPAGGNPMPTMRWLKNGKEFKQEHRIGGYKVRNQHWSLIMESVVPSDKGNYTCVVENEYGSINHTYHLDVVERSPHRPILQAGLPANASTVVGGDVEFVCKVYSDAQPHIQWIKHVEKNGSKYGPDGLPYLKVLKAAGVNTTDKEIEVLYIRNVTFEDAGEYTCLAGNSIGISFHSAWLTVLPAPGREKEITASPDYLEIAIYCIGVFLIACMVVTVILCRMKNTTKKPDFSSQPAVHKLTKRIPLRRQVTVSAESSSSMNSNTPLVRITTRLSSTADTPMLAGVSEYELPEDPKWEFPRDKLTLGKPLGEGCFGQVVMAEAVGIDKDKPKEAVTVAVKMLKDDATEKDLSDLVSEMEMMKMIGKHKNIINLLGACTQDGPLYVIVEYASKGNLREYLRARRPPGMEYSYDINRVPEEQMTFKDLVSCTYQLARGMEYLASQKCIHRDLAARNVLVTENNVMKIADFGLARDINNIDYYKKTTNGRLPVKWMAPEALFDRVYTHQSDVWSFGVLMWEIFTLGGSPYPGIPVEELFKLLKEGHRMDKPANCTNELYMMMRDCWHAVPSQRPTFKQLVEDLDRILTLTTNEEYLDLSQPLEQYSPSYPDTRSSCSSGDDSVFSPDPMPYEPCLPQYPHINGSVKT

SMILES	IC50 (dephosphorylated FGFR2) [nM]	IC50 [1] [nM]	IC50 [2] [nM]	IC50 [3] [nM]	IC50 [4] [nM]
C=CC(=O)N1CC(F)(C(=O)N2CCC(n3cc(-c4cc(OC)c5c(Cl)cnn5c4)cn3)CC2)C1 [Example 121, 1-(3-(4-(4-(3-chloro-4-methoxypyrazolo[1,5-a]pyridin-6-yl)-1H-pyrazol-1-yl)piperidine-1-carbonyl)-3-fluoroazetidin-1-yl)prop-2-en-1-one]	12	9	169	25	31
CCc1c(-c2cc(OC)c3c(C#N)cnn3c2)cnn1C1CCN(C(=O)C2(F)CN(C(=O)/C=C/CN(C)C)C2)CC1 [Example 162, (E)-6-(1-(1-(1-(4-(dimethylamino)but-2-enoyl)-3-fluoroazetidine-3-carbonyl)piperidin-4-yl)-5-ethyl-1H-pyrazol-4-yl)-4-methoxypyrazolo [1,5-a]pyridine-3-carbonitrile]	462	99	1440	357	
COc1cc(-c2nn(C3CCN(C(=O)C4(F)CN(C(=O)/C=C/CN(C)C)C4)CC3)nc2C)cn2ncc(C#N)c12 [Example 163, (E)-6-(2-(1-(1-(4-(dimethylamino)but-2-enoyl)-3-fluoroazetidine-3-carbonyl)piperidin-4-yl)-5-methyl-2H-1,2,3-triazol-4-yl)-4-methoxypyrazolo [1,5-a]pyridine-3-carbonitrile]	125	229	1650	207	
COc1cc(-c2nnn(C3CCN(C(=O)C4(F)CN(C(=O)/C=C/CN(C)C)C4)CC3)c2C)cn2ncc(C#N)c12 [Example 164, (E)-6-(1-(1-(1-(4-(dimethylamino)but-2-enoyl)-3-fluoroazetidine-3-carbonyl)piperidin-4-yl)-5-methyl-1H-1,2,3-triazol-4-yl)-4-methoxypyrazolo [1,5-a]pyridine-3-carbonitrile]	14	8	≥ 5000	188	
COc1cc(-c2ccc(N3CCN(C(=O)C4(F)CN(C(=O)/C=C/CN(C)C)C4)CC3)nc2C)cn2ncc(C#N)c12 [Example 168, (E)-6-(6-(4-(1-(4-(dimethylamino)but-2-enoyl)-3-fluoroazetidine-3-carbonyl)piperazin-1-yl)-2-methylpyridin-3-yl)-4-methoxypyrazolo [1,5-a]pyridine-3-carbonitrile]	219	72	502	99	
COc1cc(-c2cnn(C3CCN(C(=O)C4(F)CN(C(=O)/C=C/CN(C)C)C4)CC3)c2C)cn2ncc(Cl)c12 [Example 170, (E)-1-(3-(4-(4-(3-chloro-4-methoxypyrazolo [1,5-a]pyridin-6-yl)-5-methyl-1H-pyrazol-1-yl)piperidine-1-carbonyl)-3-fluoroazetidin-1-yl)-4-(dimethylamino)but-2-en-1-one]	22	17	915	55	
COc1cc(-c2cnn(C3CCN(C(=O)C4(OC)CN(C(=O)/C=C/CN(C)C)C4)CC3)c2C)cn2ncc(Cl)c12 [Example 171, (E)-1-(3-(4-(4-(3-chloro-4-methoxypyrazolo [1,5-a]pyridin-6-yl)-5-methyl-1H-pyrazol-1-yl)piperidine-1-carbonyl)-3-methoxyazetidin-1-yl)-4-(dimethylamino)but-2-en-1-one]	41	24	888	50	
C=CC(=O)N1CC(O)(C(=O)N2CCC(n3ncc(-c4cc(OC)c5c(Cl)cnn5c4)c3C)CC2)C1 [Example 172, 1-(3-(4-(4-(3-chloro-4-methoxypyrazolo [1,5-a]pyridin-6-yl)-5-methyl-1H-pyrazol-1-yl)piperidine-1-carbonyl)-3-hydroxyazetidin-1-yl)prop-2-en-1-one]	125	101	3290	171	
COc1cc(-c2cnn(C3CCN(CC4(OC)CN(C(=O)/C=C/CN(C)C)C4)CC3)c2C)cn2ncc(Cl)c12 [Example 173, (E)-1-(3-((4-(4-(3-chloro-4-methoxypyrazolo [1,5-a]pyridin-6-yl)-5-methyl-1H-pyrazol-1-yl)piperidin-1-yl)methyl)-3-methoxyazetidin-1-yl)-4-(dimethylamino)but-2-en-1-one]	45	41	1280	164	
COc1cc(-c2cnn(C3CCN(C(=O)C4CN(C(=O)C#CCO)C4)CC3)c2)cn2ncc(C#N)c12 [Example 179, 6-(1-(1-(1-(4-hydroxybut-2-ynoyl)azetidine-3-carbonyl)piperidin-4-yl)-1H-pyrazol-4-yl)-4-methoxypyrazolo[1,5-a]pyridine-3-carbonitrile]	6	3	1600	236	
COc1cc(-c2cnn(C3CCN(C(=O)C4CN(C(=O)/C=C/CCl)C4)CC3)c2)cn2ncc(C#N)c12 [Example 181, (E)-6-(1-(1-(1-(4-chlorobut-2-enoyl)azetidine-3-carbonyl)piperidin-4-yl)-1H-pyrazol-4-yl)-4-methoxypyrazolo[1,5-a]pyridine-3-carbonitrile]	12	2	196	34	
COc1cc(-c2cnn(C3CCN(C(=O)C4CN(C(=O)/C=C/CN5CC[C@H](F)C5)C4)CC3)c2)cn2ncc(C#N)c12 [Example 182, (S,E)-6-(1-(1-(1-(4-(3-fluoropyrrolidin-1-yl)but-2-enoyl)azetidine-3-carbonyl)piperidin-4-yl)-1H-pyrazol-4-yl)-4-methoxypyrazolo[1,5-a]pyridine-3-carbonitrile]	15	3	3630	348	
COc1cc(-c2cnn(C3CCN(C(=O)C4CN(C(=O)/C=C/CN5CC[C@@H](F)C5)C4)CC3)c2)cn2ncc(C#N)c12 [Example 183, (R,E)-6-(1-(1-(1-(4-(3-fluoropyrrolidin-1-yl)but-2-enoyl)azetidine-3-carbonyl)piperidin-4-yl)-1H-pyrazol-4-yl)-4-methoxypyrazolo[1,5-a]pyridine-3-carbonitrile]	19	5	4570	592	
COc1cc(-c2cnn(C3CCN(C(=O)C4CN(C(=O)/C=C/CN5CCOCC5)C4)CC3)c2)cn2ncc(C#N)c12 [Example 184, (E)-4-methoxy-6-(1-(1-(1-(4-morpholinobut-2-enoyl)azetidine-3-carbonyl)piperidin-4-yl)-1H-pyrazol-4-yl)pyrazolo[1,5-a]pyridine-3-carbonitrile]	20	6	≥ 5000	2830	
